# Article PMC12004451, “Characterization of the Two-Domain Peptide Binding Mechanism of the Human CGRP Receptor for CGRP and the Ultrahigh Affinity ssCGRP Variant” (Biochemistry, 2025)
# Ends that are not written are not given here.
# Tests used:
# [1] = cited from earlier work
# Text: Our analysis of the ssCGRP agonist and its truncated antagonist forms advance our understanding of their potential as long-acting therapeutics. It is widely accepted that long residence time is a desirable property of drugs.[61],[62] This is particularly true for antagonists, but there can also be value in long residence time GPCR agonists.[63],[64] […] The ssCGRP(8-37) antagonist has a CGRPR residence-time longer than the plasma half-life and the ssCGRP agonist can signal for longer than t ...
# [2] = system: CGRPR (CLR:RAMP1) in COS-7 cells; experiment: CAMYEL cAMP biosensor competition assay with N-terminal TMD-binding agonist AM(13-36); assay type: cell-based, human; conditions: 30 μM, end point cAMP biosensor assay
# Method: COS-7 cells were seeded in a 96-well white plate (Corning; Costar 3917) with a density of 20,000 cell/well, 100 μL/well, and incubated at 37 °C and 5% CO2 for 24 h. Cells were transiently transfected with 250 ng DNA total with 25 ng CLR, 25 ng RAMP, 125 ng CAMYEL biosensor, 75 ng empty pcDNA3.1(+) vector, and 375 ng branched PEI per well. Transfected cells were incubated at 37 °C and 5% CO2. […] The preincubation was followed by addition of coelenterazine h (10 μM) and simultaneous addition of 30 μM AM(13-36) agonist and antagonist as indicated, and incubated for 1 h at room temperature in total volume of 50 μL. Emissions at 475 and 535 nm were read in a PHERAstar FS plate reader (BMG Labtech, Ortenberg, Germany). The buffer control (no ligand) was subtracted from each data set and plotted with the corresponding 475/535 BRET ratio in GraphPad Prism.
# [3] = system: calcitonin receptor (CTR) ECD; conditions: cited from earlier work
# Text: Similar to ssCGRP, the C-terminal segment of sCT has increased affinity for the receptor ECD, bein ...
compound,measurement,setting,value
"CC(C)C[C@H](NC(=O)CNC(=O)[C@H](C)NC(=O)[C@H](CC(C)C)NC(=O)[C@H](CCCNC(=N)N)NC(=O)[C@H](Cc1cnc[nH]1)NC(=O)[C@@H](NC(=O)[C@@H](NC(=O)[C@@H]1CSSC[C@H](NC(=O)[C@H](C)N)C(=O)N[C@@H](CC(=O)O)C(=O)N[C@@H]([C@@H](C)O)C(=O)N[C@@H](C)C(=O)N[C@@H]([C@@H](C)O)C(=O)N1)C(C)C)[C@@H](C)O)C(=O)N[C@@H](CC(C)C)C(=O)N[C@@H](CO)C(=O)N[C@@H](CCCNC(=N)N)C(=O)N[C@@H](CO)C(=O)NCC(=O)NCC(=O)N[C@H](C(=O)N[C@H](C(=O)N[C@@H](CCCCN)C(=O)N[C@@H](CC(N)=O)C(=O)N[C@@H](CC(N)=O)C(=O)N[C@@H](Cc1ccccc1)C(=O)N[C@H](C(=O)N1CCC[C@H]1C(=O)N[C@H](C(=O)N[C@@H](CC(N)=O)C(=O)N[C@H](C(=O)NCC(=O)N[C@@H](CO)C(=O)N[C@@H](CCCCN)C(=O)N[C@@H](C)C(=O)N[C@@H](Cc1ccccc1)C(N)=O)C(C)C)[C@@H](C)O)C(C)C)C(C)C)C(C)C [CGRP(1-37), αCGRP(1-37)]",plasma half-life,[1],~20 min
"AM(13-36): C-terminally truncated adrenomedullin agonist comprising the TMD-binding portion (SFGCRFGTCTVQKLAHQIYQFTDK; ends and bridges not checked; cysteine pairing not given here; UniProt P35318 107-130, looked up, fragment)",agonism of the CGRPR (cAMP),[2],agonism
Salmon calcitonin [sCT],higher affinity of C-terminal segment for receptor ECD than hCT,[3],~50 fold
